Source: patent publication US10342809B2, “Neuroactive 19-alkoxy-17-substituted steroids, prodrugs thereof, and methods of treatment using same” (priority 2012, dated 2019)
Read-outs that look alike come from different tables or passages of the source.

Experiments:
[1] = test system: Tadpole; test: Tadpole loss of righting reflex (LRR) and loss of swimming reflex (LSR); format: in vivo; settings: ± SEM
Method: Table 3 discloses the anesthetic effects of the compounds of the present disclosure. In particular, the anesthetic effect of the compounds of the present disclosure on Loss of Righting Reflex (LRR) and Loss of Swimming Reflex (LSR).
Methods used are known in the art (see Jiang, X., et al.). Error limits are calculated as standard error of the mean (N=10 or more animals at each of five or more different concentrations).

[2] = target: T1, rat α1β2γ2L type GABAA receptors expressed in Xenopus laevis oocytes (Rattus norvegicus, UniProt P62813+P63138); test: Oocyte electrophysiology: potentiation of GABA-mediated chloride currents and direct gating; format: cell-based; settings: 2 μM GABA, ± SEM, N ≥4; for oocyte electrophysiology 0.1 μM: ratio of currents in presence/absence of 0.1 μM compound; for oocyte electrophysiology 1 μM: ratio of currents in presence/absence of 1 μM compound; for oocyte electrophysiology 10 μM: ratio of currents in presence/absence of 10 μM compound
T1 construct: expressed in transfected cells; host or cells: Xenopus laevis oocytes
Method: The compounds of the present disclosure were evaluated for the ability to potentiate chloride currents mediated by 2 μM GABA at rat α1β2γ2L type GABAA receptors expressed in Xenopus laevis oocytes and the results are shown in Table 2.

[3] = target: T1, rat α1β2γ2L type GABAA receptors expressed in Xenopus laevis oocytes; test: as above; format: cell-based; settings: direct current gated by 10 μM compound in absence of GABA; ratio of compound only current/2 μM GABA current
[4] = target: picrotoxin binding site on GABAA receptors; test: [35S]-TBPS displacement (inhibition of [35S]-TBPS binding); settings: non-competitive displacement; duplicate experiments in triplicate; ± SEM
Text: The IC50 values for non-competitive displacers of [^35S]-TBPS from the picrotoxin binding site on GABAA receptors are reported in Table 1.

[5] = loss of righting reflex, read-out: Tadpole LRR EC50
[6] = loss of swimming reflex, read-out: Tadpole LSR EC50

T1 sequence (P62813 28-455): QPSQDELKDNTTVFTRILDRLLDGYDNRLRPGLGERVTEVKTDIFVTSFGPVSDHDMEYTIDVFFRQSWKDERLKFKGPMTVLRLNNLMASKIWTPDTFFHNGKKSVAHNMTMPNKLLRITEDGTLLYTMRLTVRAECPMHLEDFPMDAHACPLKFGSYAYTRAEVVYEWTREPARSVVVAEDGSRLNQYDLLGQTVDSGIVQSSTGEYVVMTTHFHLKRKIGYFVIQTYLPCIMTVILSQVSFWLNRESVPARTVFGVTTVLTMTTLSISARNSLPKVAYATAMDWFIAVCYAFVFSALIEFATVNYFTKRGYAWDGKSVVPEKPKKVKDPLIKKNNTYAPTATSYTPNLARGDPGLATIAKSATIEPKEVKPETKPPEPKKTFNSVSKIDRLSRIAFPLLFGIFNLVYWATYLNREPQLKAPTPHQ
T1 sequence (P63138 26-474): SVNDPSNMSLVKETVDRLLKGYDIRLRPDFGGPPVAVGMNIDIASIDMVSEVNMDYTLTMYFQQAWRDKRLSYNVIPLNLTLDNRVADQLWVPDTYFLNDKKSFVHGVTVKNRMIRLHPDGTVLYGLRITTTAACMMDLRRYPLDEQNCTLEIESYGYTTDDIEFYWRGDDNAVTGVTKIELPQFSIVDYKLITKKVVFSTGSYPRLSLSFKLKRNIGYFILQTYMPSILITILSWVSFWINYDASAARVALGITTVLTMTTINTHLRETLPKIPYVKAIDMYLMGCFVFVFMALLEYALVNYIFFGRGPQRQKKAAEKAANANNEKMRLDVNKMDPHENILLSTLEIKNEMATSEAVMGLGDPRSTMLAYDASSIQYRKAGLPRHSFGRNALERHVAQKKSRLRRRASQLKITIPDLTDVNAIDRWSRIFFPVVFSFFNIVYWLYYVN
T1 sequence (P18508 with tags, fused parts or gaps INS375LLRMFSFK partner): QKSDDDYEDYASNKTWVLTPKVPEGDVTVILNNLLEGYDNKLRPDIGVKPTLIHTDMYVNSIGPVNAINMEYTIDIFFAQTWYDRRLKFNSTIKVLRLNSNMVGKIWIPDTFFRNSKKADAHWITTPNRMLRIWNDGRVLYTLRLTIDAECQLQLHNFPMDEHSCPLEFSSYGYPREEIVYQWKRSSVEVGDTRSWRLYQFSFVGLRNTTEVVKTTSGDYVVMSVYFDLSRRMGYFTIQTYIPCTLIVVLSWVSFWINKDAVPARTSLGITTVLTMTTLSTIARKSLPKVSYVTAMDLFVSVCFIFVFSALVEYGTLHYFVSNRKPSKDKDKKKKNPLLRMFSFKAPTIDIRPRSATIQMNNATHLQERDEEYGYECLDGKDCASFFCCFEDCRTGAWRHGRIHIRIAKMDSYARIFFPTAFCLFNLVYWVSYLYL

Compound | EC50 [1, 5] | oocyte electrophysiology 0.1 μM [2] | oocyte electrophysiology 1 μM [2] | oocyte electrophysiology 10 μM [2] | oocyte electrophysiology (gating) 10 μM [3] | EC50 [1, 6] | melting point | IC50 [4]
COC[C@]12CCC(O)CC1CC[C@@H]1[C@@H]2CC[C@]2(C)C(=O)CC[C@@H]12 (stereo in doubt) [Compound 30, (3α,5β)-3-Hydroxy-19-methoxyandrostan-17-one] | > 10 µM | 0.90 ± 0.02 | 0.88 ± 0.01 | 0.84 ± 0.02 |  |  |  | 
COC[C@]12CCC(=O)C[C@@H]1CC[C@H]1[C@@H]3CC[C@H](OC)[C@@]3(C)CC[C@@H]12 [Compound 7, (5α,17β)-17,19-Dimethoxyandrostan-3-one] | 1.71 ± 0.25 µM | 1.00 ± 0 | 0.85 ± 0.01 | 1.07 ± 0.02 | 0.04 ± 0.03 | 5.48 ± 0.12 µM | 91 to 93 °C | 
COC[C@]12CC[C@@H](O)C[C@@H]1CC[C@H]1[C@@H]3CC[C@H](OC)[C@@]3(C)CC[C@@H]12 [Compound 8, (5α,17β)-17,19-Dimethoxyandrostan-3-ol] | 332 ± 43 µM | 1.65 ± 0.08 | 7.63 ± 0.77 | 20.9 ± 2.73 | 0.22 ± 0.01 | 1.07 ± 0.01 µM |  | 
COC[C@]12CC[C@@H](O)C[C@@H]1CC[C@@H]1[C@@H]2CC[C@]2(C)C(=O)CC[C@@H]12 [Compound 11, (3α,5α)-3-Hydroxy-19-methoxyandrostan-17-one] | 7.95 ± 3.29 µM | 0.71 ± 0.02 | 0.76 ± 0.07 | 2.17 ± 0.12 | 0 ± 0.07 | 17.3 ± 0.2 µM |  | 4.3 µM
COC[C@]12CC[C@@H](O)C[C@@H]1CC[C@@H]1[C@@H]2CC[C@@]2(C)[C@H]1CC[C@@]21CO1 [Compound 12, (3α,5α,17β)-19-Methoxyspiro[androstane-17,2′-oxiran]-3-ol] | 1.73 ± 0.05 µM | 1.24 ± 0.05 | 7.40 ± 1.43 | 18.7 ± 6.19 | 0.14 ± 0.04 | 3.54 ± 2.33 µM |  | 
COC[C@]12CC[C@@H](O)C[C@@H]1CC[C@@H]1[C@@H]2CC[C@]2(C)C(C#N)=CC[C@@H]12 [Compound 15, (3α,5α)-3-Hydroxy-19-methoxyandrost-16-ene-17-carbonitrile] | 1.22 ± 0.94 µM | 1.27 ± 0.13 | 5.34 ± 0.86 | 25.6 ± 3.23 | 0.10 ± 0.09 | 2.71 µM |  | 
COC[C@]12CC[C@@H](O)C[C@@H]1CC[C@H]1[C@@H]3CC[C@H](C#N)[C@@]3(C)CC[C@@H]12 [Compound 16, (3α,5α,17β)-3-Hydroxy-19-methoxyandrostane-17-carbonitrile] | 0.36 ± 0.04 µM | 1.52 ± 0.02 | 9.79 ± 0.53 | 25.7 ± 2.11 | 0.25 ± 0.11 | 0.99 ± 0.17 µM |  | 
COC[C@]12CC[C@@H](O)C[C@@H]1CC[C@H]1[C@@H]3CC[C@H](C(C)=O)[C@@]3(C)CC[C@@H]12 [Compound 17, (3α,5α)-3-Hydroxy-19-methoxypregnan-20-one] | 0.36 ± 0.04 µM | 2.15 ± 0.19 | 12.8 ± 1.74 | 33.8 ± 5.44 | 0.23 ± 0.07 | 1.71 ± 0.03 µM |  | 
COC[C@]12CC[C@@H](O)C[C@@H]1CC[C@H]1[C@@H]3CC[C@H](C(=O)CO)[C@@]3(C)CC[C@@H]12 [Compound 20, (3α,5α)-3,21-Dihydroxy-19-methoxypregnan-20-one] | 3.15 ± 0.5 µM | 0.98 ± 0.01 | 2.76 ± 0.27 | 19.0 ± 2.31 | 0.09 ± 0.05 | 5.48 ± 0.12 µM |  | 
COC[C@]12CCC(=O)C=C1CC[C@@H]1[C@@H]2CC[C@]2(C)[C@@H](OC)CC[C@@H]12 [Compound 24, (17β)-17,19-Dimethoxyandrost-4-en-3-one] |  | 0.88 ± 0.08 | 0.63 ± 0.06 | 1.06 ± 0.17 | 0.11 ± 0.17 |  |  | 
COC[C@]12CC[C@@H](O)CC1=CC[C@@H]1[C@@H]2CC[C@]2(C)[C@@H](OC)CC[C@@H]12 [Compound 25, (3α,17β)-17, 19-Dimethoxyandrost-5-en-3-ol] | 3.38 ± 0.38 µM | 0.94 ± 0.07 | 1.97 ± 0.08 | 15.7 ± 0.90 | 0.08 ± 0.07 | 10.5 µM |  | 
COC[C@]12CC[C@H](O)CC1=CC[C@@H]1[C@@H]2CC[C@]2(C)[C@@H](OC)CC[C@@H]12 [Compound 26, (3β,17β)-17, 19-Dimethoxyandrost-5-en-3-ol] |  | 0.83 ± 0.03 | 0.76 ± 0.02 | 0.78 ± 0.02 | 0.02 ± 0.02 |  |  | 
COC[C@]12CC[C@@H](O)C[C@@H]1CC[C@H]1[C@@H]3CC[C@H]([N+](=O)[O-])[C@@]3(C)CC[C@@H]12 [Compound 29, (3α,5α,17β)-19-methoxy-17-nitroandrostan-3-ol] | 0.16 ± 0.01 µM | 2.07 ± 0.09 | 15.7 ± 1.45 | 26.6 ± 4.34 | 0.11 ± 0.01 | 0.55 ± 0.01 µM |  | 
COC[C@]12CC[C@H](O)C[C@@H]1CC[C@H]1[C@@H]3CC[C@H](OC)[C@@]3(C)CC[C@@H]12 [Compound 31, (3β,5α,17β)-17, 19-Dimethoxyandrostan-3-ol] | 7.04 ± 1.98 µM | 0.91 ± 0.02 | 0.97 ± 0.05 | 1.10 ± 0.05 | 0.02 ± 0 | 16.8 ± 5.9 µM |  | 
